Measured values: patent US20250129067A1 (Progentos Therapeutics, Inc., priority 2021, published 2025)

Key:
[1] = molecular target: PDGFRα (Homo sapiens (Human), UniProt P16234); experiment: PDGFRα kinase enzyme assay (Promega PDGFRα Kinase Enzyme System, ADP-Glo); format: biochemical; settings: 11-point dose response, 10,000 nM to 0.169 nM; 150 uM ATP; BLQ = below limit of quantitation; read-out: IC50 Values on PDGFRα Kinase Inhibition, IC50
Procedure: The PDGFRα enzyme assays were conducted per the manufacturer's directions (Promega PDGFRα Kinase Enzyme System and ADP Glo Assay Cat #V8011). […] 20 ng of purified PDGFRα protein was added to the test article. […] ADP-Glo was added to halt the kinase reaction and deplete the remaining ATP. Kinase detection reagent, containing luciferase and luciferin, was used to convert the ADP signal into luminescence. Luminescence was measured using a Molecular Devices Spectramax ID5 and compared to a standard curve to determine kinase activity. IC50s were calculated using Prism 9, Graphpad software.

[2] = tested on: Oligodendrocyte progenitor cells (OPCs); experiment: In vitro OPC differentiation assay, GPR17 expression (immunocytochemistry); settings: 3 μM (10× concentration, final 0.3 μM); 72 hours; fold change over vehicle

Chain of PDGFRα (P16234 24-1089): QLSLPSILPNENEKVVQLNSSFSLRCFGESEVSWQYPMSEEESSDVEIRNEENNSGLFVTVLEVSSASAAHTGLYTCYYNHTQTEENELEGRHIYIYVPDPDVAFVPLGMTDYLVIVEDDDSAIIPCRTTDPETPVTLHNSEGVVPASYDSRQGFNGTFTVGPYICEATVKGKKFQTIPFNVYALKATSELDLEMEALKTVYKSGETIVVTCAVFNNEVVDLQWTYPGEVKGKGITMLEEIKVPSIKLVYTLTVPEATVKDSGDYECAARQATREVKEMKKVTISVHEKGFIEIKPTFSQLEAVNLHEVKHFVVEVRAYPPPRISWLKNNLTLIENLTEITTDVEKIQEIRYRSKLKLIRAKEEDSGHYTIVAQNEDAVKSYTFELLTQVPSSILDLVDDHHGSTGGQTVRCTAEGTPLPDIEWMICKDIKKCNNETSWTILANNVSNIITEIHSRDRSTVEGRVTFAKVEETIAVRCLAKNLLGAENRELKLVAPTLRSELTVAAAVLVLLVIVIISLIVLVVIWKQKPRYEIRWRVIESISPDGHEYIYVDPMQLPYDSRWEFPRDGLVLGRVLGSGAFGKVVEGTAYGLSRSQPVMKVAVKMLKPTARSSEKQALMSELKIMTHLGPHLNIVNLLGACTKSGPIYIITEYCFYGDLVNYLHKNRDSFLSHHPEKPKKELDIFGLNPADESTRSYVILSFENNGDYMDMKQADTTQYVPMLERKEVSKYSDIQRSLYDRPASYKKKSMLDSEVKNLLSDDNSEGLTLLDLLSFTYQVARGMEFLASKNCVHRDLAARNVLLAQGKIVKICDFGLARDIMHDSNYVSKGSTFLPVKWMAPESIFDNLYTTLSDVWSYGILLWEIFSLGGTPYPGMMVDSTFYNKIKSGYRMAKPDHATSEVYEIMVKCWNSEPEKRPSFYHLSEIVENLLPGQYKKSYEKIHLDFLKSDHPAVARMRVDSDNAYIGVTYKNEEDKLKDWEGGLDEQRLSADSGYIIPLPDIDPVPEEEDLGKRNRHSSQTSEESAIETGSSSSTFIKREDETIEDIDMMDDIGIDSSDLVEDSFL

Row | SMILES | IC50 [1] [nM] | GPR17 Fold Induction (Over Vehicle; 3 μM) [2]
1 | Cn1cc(-c2ccn3c(N4CCN(c5ncc(Cc6ccccc6)cn5)CC4)nnc3c2)cn1 [Compound 24, 3-[4-(5-benzylpyrimidin-2-yl)piperazin-1-yl]-7-(1-methyl-1H-pyrazol-4-yl)[1,2,4]triazolo[4,3-a]pyridine] | > 10000 | 0.54
2 | Cn1cc(-c2ccc3c(N4CCN(C(=O)OCc5ccccc5C#N)CC4)cnn3c2)cn1 [Compound 281, 2-cyanobenzyl 4-(6-(1-methyl-1H-pyrazol-4-yl)pyrazolo[1,5-a]pyridin-3-yl)piperazine-1-carboxylate] | 303 | 11.42
3 | Cn1cc(-c2ccc3c(N4CCN(c5ncc(C(O)C6CCCCO6)cn5)CC4)cnn3c2)cn1 (stereo not shown) [Compound 194, (2-(4-(6-(1-methyl-1H-pyrazol-4-yl)pyrazolo[1,5-a]pyridin-3-yl)piperazin-1-yl)pyrimidin-5-yl)(tetrahydro-2H-pyran-2-yl)methanol] | 195 | 8.67
4 | Cn1cc(-c2ccc3c(N4CCN(c5ncc(Cc6ccsc6)cn5)CC4)cnn3c2)cn1 [Compound 302, 6-(1-methyl-1H-pyrazol-4-yl)-3-(4-(5-(thiophen-3-ylmethyl)pyrimidin-2-yl)piperazin-1-yl)pyrazolo[1,5-a]pyridine] | 137 | 8.86
5 | Cc1cn(-c2ccn3c(N4CCCN(C(=O)OC(C)(C)C)CC4)cnc3n2)cn1 [Compound 111, tert-butyl 4-(7-(4-methyl-1H-imidazol-1-yl)imidazo[1,2-a]pyrimidin-3-yl)-1,4-diazepane-1-carboxylate] | > 10000 | 0.60
6 | CC(C)(C)OC(=O)N1CCCN(c2cnc3nc(C4CCOC4)ccn23)CC1 (stereo not shown) [Compound 107, tert-butyl 4-(7-(tetrahydrofuran-3-yl)imidazo[1,2-a]pyrimidin-3-yl)-1,4-diazepane-1-carboxylate] | > 10000 | 0.58
7 | Cn1cc(-c2ccc3c(N4CCN(C(=O)OCc5csc(Cl)c5)CC4)cnn3c2)cn1 [Compound 197, (5-chlorothiophen-3-yl)methyl 4-(6-(1-methyl-1H-pyrazol-4-yl)pyrazolo[1,5-a]pyridin-3-yl)piperazine-1-carboxylate] | 65.3 | 12.24
8 | CN(CCNc1cnn2cc(-c3cnn(C)c3)ccc12)c1ncc(Cc2ccccc2)cn1 [Compound 126, N^1-(5-benzylpyrimidin-2-yl)-N^1-methyl-N^2-(6-(1-methyl-1H-pyrazol-4-yl)pyrazolo[1,5-a]pyridin-3-yl)ethane-1,2-diamine] | 7120 | 5.91
9 | Cn1cc(-c2ccc3c(N4CCN(C(=O)OC(C)(C)C)CCC4=O)cnn3c2)cn1 [Compound 27, tert-butyl 4-[6-(1-methyl-1H-pyrazol-4-yl)pyrazolo[1,5-a]pyridine-3-yl]-5-oxo-1,4-diazepane-1-carboxylate] | > 10000 | 0.96
10 | CN(CCCNc1ncc(Cc2ccccc2)cn1)c1cnn2cc(-c3cnn(C)c3)ccc12 [Compound 128, N^1-(5-benzylpyrimidin-2-yl)-N^3-methyl-N^3-(6-(1-methyl-1H-pyrazol-4-yl)pyrazolo[1,5-a]pyridin-3-yl)propane-1,3-diamine] | > 10000 | 1.45
11 | CN(CCN(C)c1cnn2cc(-c3cnn(C)c3)ccc12)c1ncc(Cc2ccccc2)cn1 [Compound 127, N^1-(5-benzylpyrimidin-2-yl)-N^1,N^2-dimethyl-N^2-(6-(1-methyl-1H-pyrazol-4-yl)pyrazolo[1,5-a]pyridin-3-yl)ethane-1,2-diamine] | > 10000 | 1.36
12 | Cn1cc(-c2ccc3c(C4=CCC(C(=O)OCc5ccccc5)CC4)cnn3c2)cn1 (stereo not shown) [Compound 132, benzyl 4-(6-(1-methyl-1H-pyrazol-4-yl)pyrazolo[1,5-a]pyridin-3-yl)cyclohex-3-ene-1-carboxylate] | 744 | 5.85
13 | CCCCCc1cnc(N2CCN(c3cnn4cc(-c5cnn(C)c5)ccc34)CC2)nc1 [Compound 190] | 543 | 6.05
14 | CC(C)(C)OC(=O)N1CCN(c2cnn3cc(-c4ccncc4)ccc23)CC1 [Compound 218, tert-butyl 4-(6-(pyridin-4-yl)pyrazolo[1,5-a]pyridin-3-yl)piperazine-1-carboxylate] | 2310 | 3.46
15 | CN(CCNc1ncc(Cc2ccccc2)cn1)c1cnn2cc(-c3cnn(C)c3)ccc12 [Compound 125, N^1-(5-benzylpyrimidin-2-yl)-N^2-methyl-N^2-(6-(1-methyl-1H-pyrazol-4-yl)pyrazolo[1,5-a]pyridin-3-yl)ethane-1,2-diamine] | > 10000 | 1.09
16 | Cn1cc(-c2ccn3c(N4CCCN(c5ncc(Cc6ccccc6)cn5)CC4)cnc3n2)cn1 [Compound 122, 3-(4-(5-benzylpyrimidin-2-yl)-1,4-diazepan-1-yl)-7-(1-methyl-1H-pyrazol-4-yl)imidazo[1,2-a]pyrimidine] | > 10000 | 3.19
17 | Cn1cc(-c2ccc3c(N4CCN(c5ncc(CCCc6ccccc6)cn5)CC4)cnn3c2)cn1 [Compound 183, 6-(1-methyl-1H-pyrazol-4-yl)-3-(4-(5-(3-phenylpropyl)pyrimidin-2-yl)piperazin-1-yl)pyrazolo[1,5-a]pyridine] | 815 | 5.74
18 | CN(CCN(C)c1cnc2nc(-c3cccnc3)ccn12)C(=O)OC(C)(C)C [Compound 112] | > 10000 | 0.91
19 | COCCn1cc(-c2cc3ncc(N(C)CCN(C)C(=O)OC(C)(C)C)n3cn2)cn1 [Compound 97, tert-butyl (2-((7-(1-(2-methoxyethyl)-1H-pyrazol-4-yl)imidazo[1,2-c]pyrimidin-3-yl)(methyl)amino)ethyl)(methyl)carbamate] | > 10000 | 1.25
20 | Cn1cc(-c2ccc3c(N4CCN(c5ncc(CC6CCOCC6)cn5)CC4)cnn3c2)cn1 [Compound 68, 6-(1-methyl-1H-pyrazol-4-yl)-3-{4-[5-(tetrahydro-2H-pyran-4-ylmethyl)pyrimidin-2-yl]piperazin-1-yl}pyrazolo[1,5-a]pyridine] | 1240 | 4.35
21 | CN(CCN(C)c1cnc2cc(-c3cnn(C)c3)ncn12)C(=O)OC(C)(C)C [Compound 95, tert-butyl methyl(2-(methyl(7-(1-methyl-1H-pyrazol-4-yl)imidazo[1,2-c]pyrimidin-3-yl)amino)ethyl)carbamate] | > 10000 | 1.16
22 | Cn1cc(-c2ccc3c(N4CCN(c5ncc(C(N)c6ccc(F)cc6)cn5)CC4)cnn3c2)cn1 (stereo not shown) [Compound 246, 1-(4-fluorophenyl)-1-(2-{4-[6-(1-methyl-1H-pyrazol-4-yl)pyrazolo[1,5-a]pyridin-3-yl]piperazin-1-yl}pyrimidin-5-yl)methanamine] | 937 | 3.04
23 | CC(C)(C)OC(=O)N1CCCN(c2cnc3cc(-c4cccnc4)ncn23)CC1 [Compound 92, tert-butyl 4-(7-(pyridin-3-yl)imidazo[1,2-c]pyrimidin-3-yl)-1,4-diazepane-1-carboxylate] | > 10000 | 0.81
